Test results published in ChEMBL document CHEMBL5233261, “Recent accomplishments on the synthetic/biological facets of pharmacologically active 1H-1,2,3-triazoles” (Eur J Med Chem, 2021).
pIC50: −log10 of the molar value. Converted amounts (≈) assume the structure as drawn.

How the values were obtained:
[1] = biological target: Enoyl-[acyl-carrier-protein] reductase [NADH] (Mycobacterium tuberculosis) (UniProt P9WGR1); assay: Inhibition of Mycobacterium tuberculosis InhA at 50 microM relative to control
Sequence of Enoyl-[acyl-carrier-protein] reductase [NADH] (Mycobacterium tuberculosis) (P9WGR1 whole entry): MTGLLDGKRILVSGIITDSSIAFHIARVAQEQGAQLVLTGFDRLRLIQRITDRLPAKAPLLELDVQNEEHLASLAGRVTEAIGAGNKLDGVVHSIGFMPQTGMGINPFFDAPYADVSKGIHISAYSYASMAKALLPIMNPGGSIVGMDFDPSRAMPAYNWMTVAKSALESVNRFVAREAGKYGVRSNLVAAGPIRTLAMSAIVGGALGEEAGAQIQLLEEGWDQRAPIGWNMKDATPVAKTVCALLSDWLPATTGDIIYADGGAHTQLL

MCF7 [2] = assay: Potency index, ratio of Tamoxifen IC50 to test compound IC50 for cytotoxicity against human MCF7 cells by MTT assay; assay type: functional
Plasmodium falciparum [3] = assay: Antimalarial activity against Plasmodium falciparum 3D7 strain by MSF assay; assay type: functional, organism-based
MIA PaCa-2 = assay: Anticancer activity against human MIA PaCa-2 cells assessed as cell growth inhibition incubated for 48 hrs by SRB assay; assay type: functional, cell-based; conditions: MIA PaCa-2, 48 h
HeLa = assay: Anticancer activity against human HeLa cells assessed as cell growth inhibition incubated for 48 hrs by SRB assay; assay type: functional, cell-based
MDA-MB-231 [4] = assay: Potency index, ratio of Tamoxifen IC50 to test compound IC50 for cytotoxicity against human MDA-MB-231 cells by MTT assay; assay type: functional
MCF7 [5] = assay: Anticancer activity against human MCF7 cells assessed as cell growth inhibition incubated for 48 hrs by MTT assay; assay type: functional, cell-based; conditions: MCF7, 48 h
[6] = tested on: Mycobacterium tuberculosis; assay: Antibacterial activity against Mycobacterium tuberculosis H37Rv ATCC 27294 strain assessed as bacterial growth inhibition by MABA Assay; assay type: functional
Pseudomonas aeruginosa [7] = assay: Antibacterial activity against Pseudomonas aeruginosa assessed as bacterial growth inhibition; assay type: functional
Staphylococcus aureus [8] = assay: Antibacterial activity against Staphylococcus aureus ATCC 6538P strain assessed as bacterial growth inhibition; assay type: functional
Bacillus cereus = assay: Antibacterial activity against Bacillus cereus ATCC 11778 strain assessed as bacterial growth inhibition; assay type: functional
Escherichia coli [9] = assay: Antibacterial activity against Escherichia coli ATCC 853 strain assessed as bacterial growth inhibition; assay type: functional
Proteus vulgaris = assay: Antibacterial activity against Proteus vulgaris ATCC 7829 strain assessed as bacterial growth inhibition; assay type: functional
Aspergillus fumigatus = assay: Antifungal activity against Aspergillus fumigatus ATCC 13073 strain assessed as […] growth inhibition; assay type: functional
Candida albicans [10] = assay: Antifungal activity against Candida albicans NRRL Y-477 strain assessed as […] growth inhibition; assay type: functional
[11] = tested on: Staphylococcus epidermidis; assay: Antibacterial activity against Staphylococcus epidermidis assessed as bacterial growth inhibition; assay type: functional
Bacillus subtilis = assay: Antibacterial activity against Bacillus subtilis assessed as bacterial growth inhibition; assay type: functional
Escherichia coli [12] = assay: Antibacterial activity against Escherichia coli assessed as bacterial growth inhibition; assay type: functional
Aspergillus niger = assay: Antifungal activity against Aspergillus niger assessed as […] growth inhibition; assay type: functional
Candida albicans [13] = assay: Antifungal activity against Candida albicans assessed as […] growth inhibition; assay type: functional
Plasmodium falciparum [14] = assay: Antimalarial activity against Plasmodium falciparum 3D7 strain incubated for 40 hrs by Giemsa staining based microscopic analysis; assay type: functional, organism-based; conditions: 3D7, 40 h
Plasmodium falciparum [15] = assay: Antimalarial activity against Plasmodium falciparum RKL-2 strain incubated for 40 hrs by Giemsa staining based microscopic analysis; assay type: functional, organism-based; conditions: RKL-2, 40 h
Plasmodium berghei = assay: In vivo antimalarial activity against Plasmodium berghei infected in swiss albino mouse at 50 microg/kg, ip administered as single dose for 4 to 6 weeks relative to control; assay type: functional; conditions: dose 50 µg/kg, time 4-6 weeks
Escherichia coli [16] = assay: Antibacterial activity against Escherichia coli ATCC 11229 assessed as bacterial growth inhibition by agar well diffusion assay; assay type: functional
Staphylococcus aureus [17] = assay: Antibacterial activity against Staphylococcus aureus ATCC 6538 assessed as bacterial growth inhibition by agar well diffusion assay; assay type: functional
Listeria = assay: Antibacterial activity against Listeria assessed as bacterial growth inhibition by agar well diffusion assay; assay type: functional
Enterococcus faecalis = assay: Antibacterial activity against Enterococcus faecalis ATCC 29212 strain assessed as bacterial growth inhibition incubated for 24 hrs; assay type: functional
Pseudomonas aeruginosa [18] = assay: Antibacterial activity against Pseudomonas aeruginosa ATCC 27853 strain assessed as bacterial growth inhibition incubated for 24 hrs; assay type: functional
MCF7 [19] = assay: Anticancer activity against human MCF7 cells assessed as cell growth inhibition incubated for 24 hrs by MTT assay; assay type: functional, cell-based; conditions: MCF7, 24 h
MDA-MB-231 [20] = assay: Anticancer activity against human MDA-MB-231 cells assessed as cell growth inhibition incubated for 48 hrs by MTT assay; assay type: functional, cell-based; conditions: MDA-MB-231, 48 h
MCF7 [21] = assay: Anticancer activity against human MCF7 cells assessed as cell growth inhibition by MTT assay; assay type: functional, cell-based
MDA-MB-231 [22] = assay: Anticancer activity against human MDA-MB-231 cells assessed as cell growth inhibition by MTT assay; assay type: functional, cell-based
HEK293 = assay: Anticancer activity against human HEK293 cells assessed as cell growth inhibition by MTT assay; assay type: functional

Molecule COc1cc(-n2cc(CS(=O)(=O)C3c4ccccc4-c4ccccc43)nn2)cc(OC)c1OC has an inhibition [1] of 73%.
O=C1C(=O)N(CCn2cc(COCCOc3ccc(/C(=C(/CCCl)c4ccccc4)c4ccccc4)cc3)nn2)c2c(Br)cc(Br)cc21 was tested, and the “Ratio IC50” value (MCF7 [2]) was 30.
In the case of [N-]=[N+]=NCC(=O)NCCNc1ccnc2cc(Cl)ccc12, the pIC50 (Plasmodium falciparum [3]) was 7.41.
COc1ccc2cccc(-c3cn(CCCOC(=O)C4=C(Cl)c5cc(C)c(C)cc5CCC4)nn3)c2c1 was tested, and the pIC50 (MIA PaCa-2) was greater than 8.00 and the pIC50 (HeLa) was 5.79.
With Cc1ncc([N+](=O)[O-])n1Cc1cn(CCCCCN2C(=O)C(=O)c3cc(Cl)ccc32)nn1 the “Ratio IC50” value (MCF7 [2]) was 2 and the “Ratio IC50” value (MDA-MB-231 [4]) was 5.
For N#CC1=C(N)Oc2cc3c(cc2C12C(=O)N(Cc1cn(Cc4ccc([N+](=O)[O-])cc4)nn1)c1ccccc12)[nH]c1ccccc13 (centres undefined), the pIC50 (MCF7 [5]) was 5.67.
With COc1ccc(C(=O)Cn2cc(CNC(=O)c3cc4cc(OC)ccc4nc3Cl)nn2)cc1 the MIC [6] was 1.6 µg/mL (≈ 3.43 µM).
NC(=O)N/N=C/c1ccccc1OCc1cn(-c2ccc(Br)cc2)nn1 showed an MIC (Pseudomonas aeruginosa [7]; Pseudomonas aeruginosa, read-out: MIC) of 60.2 µM (≈ 25 µg/mL).
With O=C(CCl)NCCNc1ccnc2cc(Cl)ccc12 the pIC50 (Plasmodium falciparum [3]) was 7.41.
Molecule COc1ccc2nc(Cl)c(C(=O)NCc3cn(Cc4ccccc4)nn3)cc2c1 has an MIC [6] of 1.6 µg/mL (≈ 3.92 µM).
With COc1ccccc1-n1cc(COc2ccc(-c3nc(-c4ccccc4)c(-c4ccccc4)n3Cc3cn(-c4ccccc4OC)nn3)cc2)nn1 the MIC (Staphylococcus aureus [8]) was 13.8 µM (≈ 9.46 µg/mL), the MIC (Bacillus cereus) was 13.8 µM (≈ 9.46 µg/mL) and the MIC (Escherichia coli [9]) was 13.8 µM (≈ 9.46 µg/mL). The MIC (Proteus vulgaris) was 13.8 µM (≈ 9.46 µg/mL), the MIC (Aspergillus fumigatus) was 13.8 µM (≈ 9.46 µg/mL) and the MIC (Candida albicans [10]) was 13.8 µM (≈ 9.46 µg/mL).
O=C(Cn1cc(-c2ccccc2)nn1)Nc1ccc(F)cc1 was tested, and the MIC [11] was 0.201 umol/cm3, the MIC (Bacillus subtilis) was 0.201 umol/cm3 and the MIC (Escherichia coli [12]) was 0.201 umol/cm3. For the same molecule, the MIC (Pseudomonas aeruginosa [7]) was 0.201 umol/cm3, the MIC (Aspergillus niger) was 0.201 umol/cm3 and the MIC (Candida albicans [13]) was 0.201 umol/cm3.
With C[C@H]1[C@H](N=[N+]=[N-])O[C@@H]2O[C@]3(C)CC[C@H]4[C@H](C)CC[C@@H]1[C@@]24OO3 the IC50 (Plasmodium falciparum [14]) was 0.066 µg/mL (≈ 0.213 µM), the IC50 (Plasmodium falciparum [15]) was 0.865 µg/mL (≈ 2.8 µM) and the Activity (Plasmodium berghei) was 59%.
Work on CC(C)c1ccc(-c2cc(-c3ccc(Cl)cc3)nc(OCc3cn(CC(=O)O)nn3)c2C#N)cc1 yielded an MIC (Escherichia coli [16]) of 9.6 µg/mL (≈ 19.7 µM), an MIC (Staphylococcus aureus [17]) of 19.2 µg/mL (≈ 39.3 µM) and an MIC (Listeria) of 9.6 µg/mL (≈ 19.7 µM).
Work on CCOP(=O)(CCn1cc(Cn2cnc3ccccc3c2=O)nn1)OCC yielded an MIC (Enterococcus faecalis) of 0.625 µg/mL (≈ 1.6 µM).
Molecule CCOP(=O)(CCCCn1cc(Cn2cnc3ccccc3c2=O)nn1)OCC has an MIC (Pseudomonas aeruginosa [18]) of 0.625 µg/mL (≈ 1.49 µM).
With CCOC(=O)[C@H]1Cc2c([nH]c3ccccc23)CN1Cc1cn(CCCN2C(=O)C(=O)c3ccccc32)nn1 the pIC50 (MCF7 [19]) was 4.43.
For CCC(C)n1cc(CN2C(=O)C3(C(C#N)=C(N)Oc4cc5c(cc43)[nH]c3ccccc35)c3ccccc32)nn1 (centres undefined), the pIC50 (MDA-MB-231 [20]) was 5.67.
Molecule COc1cc([C@H]2c3cc4c(cc3[C@H](OCc3cn([C@@H]5O[C@H](COC(C)=O)[C@H](OC(C)=O)[C@H](OC(C)=O)[C@H]5OC(C)=O)nn3)[C@@H]3COC(=O)[C@@H]23)OCO4)cc(OC)c1OC has a pIC50 (MCF7 [21]) of 5.90.
Work on O=C1C(=O)N(Cc2cn(CC/C(=C(\c3ccccc3)c3ccc(OCCO)cc3)c3ccccc3)nn2)c2c(Br)cc(Br)cc21 yielded a pIC50 (MCF7 [21]) of 4.50, a pIC50 (MDA-MB-231 [22]) of 4.72 and an IC50 (HEK293) greater than 100000 nM.
Work on O=C1C(=O)N(CCCn2cc(COCCOc3ccc(/C(=C(/CCCl)c4ccccc4)c4ccccc4)cc3)nn2)c2c(Br)cc(Br)cc21 yielded a pIC50 (MCF7 [19]) of 4.78.
